# Activity calls are given as the source filed them.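 Rule for the calls: active = compounds giving half or more protection of infected cells from virus-caused growth loss, again on retest; inactive = the rest.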
# Tested on: CEM cells HIV-1 protection, formazan growth assay
# Assay: NCI AIDS Antiviral Assay
# Conditions: for IC50: measured here: growth of uninfected CEM cells
# How it was run: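 Category rules: moderately active means at least 50% protection on retest, and confirmed active means 100% protection reproducibly. The underlying data came from a formazan growth assay in HIV-1-infected CEM cells.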
Structure (SMILES),EC50 [µM],IC50 [µM],outcome
NC(=O)C(=CN1C(=O)/C(=C/c2ccccc2O)SC1=S)C(N)=O,> 200,123,–
Cc1ccc(Nc2c(C#N)[n+]([O-])c3cc(Cl)ccc3[n+]2[O-])cc1,> 20,19.1,–
CCCN(CCCC(NC(C)=O)C(=O)NCc1ccccc1)C(=O)N(CCCl)N=O (stereo not given),–,–,inactive
COC1/C=C/OC2(C)Oc3c(C)c(O)c4c(O)c(c(/C=N/n5c(=O)[nH]c6ccccc6c5=O)c(O)c4c3C2=O)NC(=O)/C(C)=C\C=C\C(C)C(O)C(C)C(O)C(C)C(OC(C)=O)C1C (stereo not given),> 200,29.5,–
OC1(c2ccccc2)Oc2ccccc2C(c2ccccc2)C1c1ccccc1 (stereo not given),> 200,9.55,–
C=C1[C@H]2C[C@H]3[C@@H]4N5C[C@]6(C)CCCC47C6[C@H]5CC3([C@@H]1O)[C@H]7[C@H]2O,–,–,inactive
COC1=C(C)C(=O)C2C(C1=O)C(c1ccc(OC)c(OC)c1)[C@H]2C (stereo not given in full),> 151,135,–
CCOC(=O)c1c(N2CCCC2)ncn(-c2ccccc2)c1=S,> 200,> 200,–
Cc1cn(C2CC(NC(=O)NO)C(CO)O2)c(=O)[nH]c1=O (stereo not given),> 200,> 200,–
O=C(Nc1ccccc1)C1CC=C2CCC3OC(=O)C1C23 (stereo not given),> 331,> 331,–
N#Cc1ccccc1NC(=O)C(=O)C(C(=O)c1ccncc1)C1OC(=O)c2ccccc21 (stereo not given),> 589,> 589,–
CC1(C)Oc2ccc3c(=O)c4ccccc4oc3c2C1C(=O)O (stereo not given),> 200,> 200,–
Cn1c(COC(=O)NC2CCCCC2)c(COC(=O)NC2CCCCC2)c2ccc3ccccc3c21,> 174,2.82,–
C=C1C(=O)OC2CC(C)C3C=CC(=O)C3CC12 (stereo not given),> 200,0.537,–
O=C1c2ccccc2C(=O)c2sc(Nc3cc(Cl)ccc3Cl)nc21,> 200,10.5,–
Cn1cccc1/C=C/c1cc(Br)c(/C=C/c2cccn2C)cc1Br,–,–,inactive
CC1(C)C[C@@H]2C1CCC1(C)CC2(O)CC[C@H]1O (stereo not given in full),> 200,> 200,–
c1cc(CSP234N5CCN2CCN3CCN4CC5)cc(CSP234N5CCN2CCN3CCN4CC5)c1,> 100,25.1,–

Structure (SMILES),EC50 [µM],IC50 [µM],outcome
CN(C)c1ccc(/C=N/N(Cc2ccccc2)c2ccccc2)cc1,> 6.03,> 6.03,–
Cc1nc2c(C#N)c3n(c2c(=O)o1)CCCC3,> 200,> 200,–
NNC(=O)c1ccccc1NC(=O)/C(=C/c1ccccc1)NC(=O)c1ccccc1,> 200,87.1,–
CC(=O)ON(OC(C)=O)c1ccc(C)cc1,> 200,> 200,–
Cc1nc(C(N)=S)sc1C(=O)CC(=O)C(=O)Nc1ccc(Br)cc1,> 85.1,> 85.1,–
COc1ccccc1NC(=O)/C(=C\n1c(=S)[nH]c2ccc([N+](=O)[O-])cc21)C(C)=O,> 200,112,–
COc1cccc(C2C(C(=O)O)=C(CO)Oc3cc4c(cc32)OCO4)c1 (stereo not given),–,–,inactive
CC(C)(C)OC(=O)[C@@H]1CCC(=O)N1C1(c2ccccc2)c2ccccc2-c2ccccc21,> 200,141,–
O=c1[nH]c2ccc(O)cc2o1,> 200,> 200,–
CC1=CC(=O)c2cccc(NC3=NCCO3)c21,> 200,72.4,–
CSc1nc(=O)cnn1C,> 200,> 200,–
C1OC1CN1CCC(C2CCN(CC3CO3)CC2)CC1 (stereo not given),> 200,0.269,–
COc1ccc2c3c(n(Cc4ccccc4)c(=O)c2c1)-c1cc(OC)c(OC)cc1C3C (stereo not given),> 6.31,> 6.31,–
CC(C)(C)c1cc(C2COC(=O)COCC(=O)OCCOCCOCCO2)cc(C(C)(C)C)c1O (stereo not given),> 200,95.5,–
C/C(=N\NC(=S)Nc1ccc(S(N)(=O)=O)cc1)c1ccccn1,> 145,8.51,–
CCCCCCCCCCCCC(Br)C(=O)NCC(N)=O (stereo not given),–,–,inactive
CN(C)C(=O)c1cccc(COc2ccc(N3C(N)=NC(N)=NC3(C)C)cc2Cl)c1,> 468,0.148,–

# Reference: PubChem BioAssay AID179 (DTP/NCI, 2004)
